This experiment has as its system Haemaphysalis longicornis. Kind of experiment: Test Example 6: filter paper contact test, fatality of ticks, compound in single solvent. The note with it: 63.6 mg/ml, 0.2 ml on filter paper (treatment amount 2000 mg/m^2), after 24 hours at 25° C.; for Fatality rate of tick (%) Example 2 diisobutyl adipate: solvent diisobutyl adipate; for Fatality rate of tick (%) Example 1 diisopropyl adipate: solvent diisopropyl adipate; for Fatality rate of tick (%) Comparative Example 1 Propylene Carbonate: solvent propylene carbonate. Format: in vivo. Here is the method: The halogen-containing organosulfur compound (33) or (35) was dissolved in a solvent such that the concentration of the halogen-containing organosulfur compound was 63.6 mg/ml to a test solution. A filter paper was put on the bottom face of a glass petri dish with 7 cm diameter and treated with 0.2 ml of the test solution (treatment amount: 2000 mg/m^2). On the filter paper, 10 Haemaphysalis longicornis were released and allowed to contact the filter paper. The glass petri dish was allowd to stand still at 25° C. After 24 hours, fatalities of the insects were observed.

Consider `CON=C1CCC(C(C#N)S(=O)(=O)CCC(F)(F)F)CC1` (stereo not drawn) [Compound (33), 2-[4-(methoxyimino)cyclohexyl]-2-(3,3,3-trifluoropropylsulfonyl)acetonitrile], for which the “Fatality rate of tick (%) Example 2 diisobutyl adipate” value is 85%, the “Fatality rate of tick (%) Example 1 diisopropyl adipate” value stood at 100% and the “Fatality rate of tick (%) Comparative Example 1 Propylene Carbonate” value is listed as 25%.

As for `CCON=C1CCC(C(C#N)S(=O)(=O)CCC(F)(F)F)CC1` (stereo not drawn) [Compound (35), 2-[4-(ethoxyimino)cyclohexyl]-2-(3,3,3-trifluoropropylsufonyl)acetonitrile], the “Fatality rate of tick (%) Example 2 diisobutyl adipate” value came to 80%, the “Fatality rate of tick (%) Example 1 diisopropyl adipate” value came out at 100% and the “Fatality rate of tick (%) Comparative Example 1 Propylene Carbonate” value was 20%.

The values are drawn from US20110160251A1, “ANIMAL ECTOPARASITE CONTROL COMPOSITION” (priority 2009, published 2011).
